For this series, the system named is HepG2 cell line. Nature of the series: In vitro toxicity study on HepG2 cell line (resazurin, viability and IC50). The conditions noted are these: for IC50: Homo sapiens, lipid toxicity, HepG2, 48 h post-treatment, 6.25-800 μM, read-out: IC50 value, μM (on HepG2 cell). Type of series: cell-based, human. On the procedure: The synthesized lipids were tested in term of in vitro transfection efficacy and toxicity on HeLa cells. In order to perform the mentioned biological tests, appropriate LNPs had to be formulated from the synthesized lipids. The formulation technique was different in Method A and B. The particle size, polydispersity index (PDI) and zeta potential of resulting LNPs were determined by means of Dynamic Light Scattering technique (DLS). Prior to biological testing the encapsulation efficiency (EE) of the loaded LNPs was determined by using RiboGreen RNA assay. In case of Method A Luc mRNA while in case of Method B GFP mRNA was transfected into the cells. In parallel with the transfection experiments, toxicity of the investigated LNPs was determined, in case of Method A resazurin assay while in case of Method B MTT assay was used. Additionally, the toxicity of the lipids was investigated on HepG2 cells and IC50 values were determined.
HepG2 cell line (human hepatocellular carcinoma) were maintained in DMEM medium supplemented with 10% FBS. Cell toxicity measurements were carried out in 384-well microtiter plates with 1000 cells seeded in each well. Test measurements were carried out in triplicate, and control measurements in quadruplicate. After an overnight incubation, the cells were treated with an increasing concentration of the test compounds (6.25, 12.5, 25, 50, 100, 200, 400, 800 μM). […] 48 h post-treatment, following visual inspection under an inverted microscope, cell viability was measured by resazurin assay. Viability of treated cells was calculated relative to that of ethanol vehicle controls. Concentration response curves (CRCs) were obtained and corresponding IC50 values were calculated where applicable and are shown in Table 9.
Resazurin reagent (Sigma-Aldrich) was dissolved in PBS (pH 7.4) at 0.15 mg/ml concentration, 0.22 μm filtered and aliquoted at −20° C., 10 μl resazurin stock solution was added to wells. After 5 hours incubation at 37° C. under 5% CO2 fluorescence (530 nm excitation/580 nm emission) was recorded on a multimode microplate reader.
In general terms: Resazurin is reduced to fluorescent resorufin, in cell work by metabolically active cells.

Where [1] appears, read: HepG2 cells, 6.25 μM lipid, 48 h post-treatment, resazurin, relative to ethanol vehicle controls.
The mark [2] stands for this setting: HepG2 cells, 12.5 μM lipid, 48 h post-treatment, resazurin, relative to ethanol vehicle controls.
[3] abbreviates: HepG2 cells, 25 μM lipid, 48 h post-treatment, resazurin, relative to ethanol vehicle controls.
Setting [4] is: HepG2 cells, 50 μM lipid, 48 h post-treatment, resazurin, relative to ethanol vehicle controls.
Setting [5] is: HepG2 cells, 100 μM lipid, 48 h post-treatment, resazurin, relative to ethanol vehicle controls.
[6] abbreviates: HepG2 cells, 200 μM lipid, 48 h post-treatment, resazurin, relative to ethanol vehicle controls.
Where [7] appears, read: HepG2 cells, 400 μM lipid, 48 h post-treatment, resazurin, relative to ethanol vehicle controls.
[8] abbreviates: HepG2 cells, 800 μM lipid, 48 h post-treatment, resazurin, relative to ethanol vehicle controls.

Take `CCCCC/C=C\C/C=C\CCCCCCCCOC(CCCCCN(CCO)CCO)O[Si](C)(C)OCCCCCCCC/C=C\C/C=C\CCCCC` (stereo not drawn) [Example 39, (21Z,24Z)-3-(2-hydroxyethyl)-11,11-dimethyl-9-(((9Z,12Z)-octadeca-9,12-dien-1-yl)oxy)-10,12-dioxa-3-aza-11-silatriaconta-21,24-dien-1-ol]: where the note is “resazurin”, the IC50 – broadly, the concentration that inhibits the measured activity by half – worked out at 667 µM. For the same compound, the “Viability (%) at different lipid concentrations, mean” value (human, 48 h, 6.25 μM) was determined as 99.8%; the “Viability (%) at different lipid concentrations, mean” value (human, 48 h, 12.5 μM) amounted to 97.8%; the “Viability (%) at different lipid concentrations, mean” value (human, 48 h, 25 μM) amounted to 99.4%; the “Viability (%) at different lipid concentrations, mean” value (human, 48 h, 50 μM) stood at 98.6%; the “Viability (%) at different lipid concentrations, mean” value (human, 48 h, 100 μM) came to 100.3%; the “Viability (%) at different lipid concentrations, mean” value (human, 48 h, 200 μM) came out at 106.1%. For the same compound, the “Viability (%) at different lipid concentrations, mean” value turned out to be 83.4% (human, 48 h, 400 μM) and 35.8% (human, 48 h, 800 μM).

For the compound `CCCCC/C=C\C/C=C\CCCCCCCCO[Si](C)(C)OC(CCCCCCC/C=C\C/C=C\CCCCC)OCCCCCCN(CCO)CCO` (stereo not drawn) [Example 40, (23Z,26Z)-11-((8Z,11Z)-heptadeca-8,11-dien-1-yl)-3-(2-hydroxyethyl)-13,13-dimethyl-10,12,14-trioxa-3-aza-13-siladotriaconta-23,26-dien-1-ol], the “Viability (%) at different lipid concentrations, mean” value by setting is: under setting [1], 100.8%; under setting [2], 97.6%; under setting [3], 98.9%; under setting [4], 101.8%; under setting [5], 109.7%; under setting [6], 115.3%. Further, the “Viability (%) at different lipid concentrations, mean” value reads like this: under setting [7], 102.0%; under setting [8], 89.0%. The half-maximal inhibitory concentration (IC50) (resazurin) was over 800 µM.

Turning to `CCCCCCCC/C=C\CCCCCCCCOC(CCCCCCCCCCCCCCC)O[Si](C)(C)OCCCCCCN(CCO)CCO` (stereo not drawn) [Example 41, (Z)-3-(2-hydroxyethyl)-11,11-dimethyl-13-pentadecyl-10,12,14-trioxa-3-aza-11-siladotriacont-23-en-1-ol], the “Viability (%) at different lipid concentrations, mean” value runs as follows: under setting [1], 99.0%; under setting [2], 97.6%; under setting [3], 102.6%; under setting [4], 111.2%; under setting [5], 113.2%; under setting [6], 109.5%. Besides, the “Viability (%) at different lipid concentrations, mean” value under setting [7] amounted to 91.5% and the “Viability (%) at different lipid concentrations, mean” value under setting [8] is 90.7%. Moreover, the IC50 (resazurin) was over 800 µM.

Take `CCCCCCCC/C=C\CCCCCCCC(OCCCCCCCCCCCCCCCC)O[Si](C)(C)OCCCCCCN(CCO)CCO` (stereo not drawn) [Example 42, (Z)-13-(heptadec-8-en-1-yl)-3-(2-hydroxyethyl)-11,11-dimethyl-10,12,14-trioxa-3-aza-11-silatriacontan-1-ol]: the “Viability (%) at different lipid concentrations, mean” value stood at 105.1% under setting [1]; 100.0% under setting [2]; 98.9% under setting [3]; 102.2% under setting [4]; 107.6% under setting [5]; 117.1% under setting [6]. In addition, the “Viability (%) at different lipid concentrations, mean” value came to 104.2% under setting [7] and 99.8% under setting [8]. The IC50 (resazurin) was over 800 µM.

Consider `CCCCC/C=C\C/C=C\CCCCCCCCOC(CCCCCCCCCCCCCCC)O[Si](C)(C)OCCCCCCN(CCO)CCO` (stereo not drawn) [Example 43, (23Z,26Z)-3-(2-hydroxyethyl)-11,11-dimethyl-13-pentadecyl-10,12,14-trioxa-3-aza-11-siladotriaconta-23,26-dien-1-ol], for which the “Viability (%) at different lipid concentrations, mean” value reads like this: under setting [1], 100.9%; under setting [2], 98.7%; under setting [3], 102.2%; under setting [4], 111.9%; under setting [5], 114.9%; under setting [6], 108.9%. The “Viability (%) at different lipid concentrations, mean” value under setting [7] turned out to be 92.1% and the “Viability (%) at different lipid concentrations, mean” value under setting [8] came out at 89.8%. Besides, the IC50 (resazurin) was over 800 µM.

Take `CCCCC/C=C\C/C=C\CCCCCCCC(OCCCCCCCCCCCCCCCC)O[Si](C)(C)OCCCCCCN(CCO)CCO` (stereo not drawn) [Example 44, 13-((8Z,11Z)-heptadeca-8,11-dien-1-yl)-3-(2-hydroxyethyl)-11,11-dimethyl-10,12,14-trioxa-3-aza-11-silatriacontan-1-ol]: the “Viability (%) at different lipid concentrations, mean” value runs as follows: under setting [1], 100.8%; under setting [2], 98.5%; under setting [3], 106.8%; under setting [4], 112.7%; under setting [5], 122.0%; under setting [6], 118.8%. The “Viability (%) at different lipid concentrations, mean” value by setting is: under setting [7], 103.0%; under setting [8], 94.0%. Also, the IC50 (resazurin) is over 800 µM.

Consider `CCCCC/C=C\C/C=C\CCCCCCCC(OCCCCCCCC/C=C\CCCCCCCC)O[Si](C)(C)OCCCCCCN(CCO)CCO` (stereo not drawn) [Example 45, (Z)-13-((8Z,11Z)-heptadeca-8,11-dien-1-yl)-3-(2-hydroxyethyl)-11,11-dimethyl-10,12,14-trioxa-3-aza-11-siladotriacont-23-en-1-ol], for which the “Viability (%) at different lipid concentrations, mean” value came to 105.6% under setting [1]; 99.4% under setting [2]; 100.4% under setting [3]; 106.0% under setting [4]; 109.5% under setting [5]; 107.1% under setting [6]. Besides, the “Viability (%) at different lipid concentrations, mean” value turned out to be 64.9% under setting [7] and 1.1% under setting [8]. Besides, under “resazurin”, the 50% inhibitory concentration (IC50) amounted to 421 µM.

`CCCCC/C=C\C/C=C\CCCCCCCCOC(CCCCCCC/C=C\CCCCCCCC)O[Si](C)(C)OCCCCCCN(CCO)CCO` (stereo not drawn) [Example 46, (23Z,26Z)-13-((Z)-heptadec-8-en-1-yl)-3-(2-hydroxyethyl)-11,11-dimethyl-10,12,14-trioxa-3-aza-11-siladotriaconta-23,26-dien-1-ol]: the “Viability (%) at different lipid concentrations, mean” value is, setting by setting: under setting [1], 103.7%; under setting [2], 100.6%; under setting [3], 101.2%; under setting [4], 97.4%; under setting [5], 103.1%; under setting [6], 101.8%. Further, the “Viability (%) at different lipid concentrations, mean” value by setting is: under setting [7], 99.8%; under setting [8], 92.1%. For the same compound, under “resazurin”, the 50% inhibitory concentration (IC50) is over 800 µM.

Consider `CCCCCCCC/C=C\CCCCCCCCOC(CCCCCCC/C=C\CCCCCCCC)O[Si](C)(C)OCCCCCCN(CCO)CCO` (stereo not drawn) [Example 47, (Z)-13-((Z)-heptadec-8-en-1-yl)-3-(2-hydroxyethyl)-11,11-dimethyl-10,12,14-trioxa-3-aza-11-siladotriacont-23-en-1-ol], for which the “Viability (%) at different lipid concentrations, mean” value under setting [1] turned out to be 104.8%; the “Viability (%) at different lipid concentrations, mean” value under setting [2] is on record as 98.6%; the “Viability (%) at different lipid concentrations, mean” value under setting [3] was determined as 99.5%; the “Viability (%) at different lipid concentrations, mean” value under setting [4] is recorded as 105.3%; the “Viability (%) at different lipid concentrations, mean” value under setting [5] stood at 112.3%; the “Viability (%) at different lipid concentrations, mean” value under setting [6] was determined as 116.3%. The “Viability (%) at different lipid concentrations, mean” value by setting is: under setting [7], 97.9%; under setting [8], 93.6%. Further, for the setting “resazurin”, the IC50 is over 800 µM.

The record behind these values is patent publication US20260109721A1, “IONIZABLE CATIONIC LIPIDS INCORPORATING SILICON: SYNTHESIS AND LNP FORMULATION” (priority 2023, published 2026).
